Laboratory results from US9556165B2 (priority 2012, dated 2017).
Converted amounts (≈) assume the structure as drawn. Read-outs that look alike come from different tables or passages of the source.

Key:
Assay type in all cases: cell-based
E. coli ATCC25922 = assay: MIC determination, broth microdilution (CLSI); details: Escherichia coli, ATCC25922, strain 1
K. pneumoniae 60 = assay: MIC determination, broth microdilution (CLSI); details: Klebsiella pneumoniae, 60, strain 2
E. cloacae 34654 = assay: MIC determination, broth microdilution (CLSI); details: Enterobacter cloacae, 34654, strain 3
C. freundii K21/3034 = assay: MIC determination, broth microdilution (CLSI); details: Citrobacter freundii, K21/3034, strain 4
M. morganii 126/3048 = assay: MIC determination, broth microdilution (CLSI); details: Morganella morganii, 126/3048, strain 5
P. aeruginosa PAO1 = assay: MIC determination, broth microdilution (CLSI); details: Pseudomonas aeruginosa, PAO1, strain 6
[1] = tested on: P. aeruginosa 2297 (AmpC wt); assay: MIC determination, broth microdilution (CLSI); details: Pseudomonas aeruginosa, strain 7
[2] = tested on: P. aeruginosa 2297-con (AmpC derepressed); assay: MIC determination, broth microdilution (CLSI); details: Pseudomonas aeruginosa, read-out: strain 8 MIC, strain 8
A. baumannii ATCC15308 = assay: MIC determination, broth microdilution (CLSI); details: Acinetobacter baumannii, ATCC15308, strain 9
S. maltophilia ICB7569 = assay: MIC determination, broth microdilution (CLSI); details: Stenotrophomonas maltophilia, ICB7569, strain 10
S. aureus 133 = assay: MIC determination, broth microdilution (CLSI)
H. influenzae ATCC 49247 = assay: MIC determination, broth microdilution (CLSI); details: Haemophilus influenzae, ATCC49247, strain 12; broth microdilution; read-out: MIC strain 12 (H. influenzae ATCC 49247)
S. pneumoniae 113 = assay: MIC determination, broth microdilution (CLSI); details: Streptococcus pneumoniae, 113, strain 13; broth microdilution; read-out: MIC strain 13 (S. pneumoniae 113)
B. fragilis 6688 = assay: MIC determination, broth microdilution (CLSI); details: Bacteroides fragilis, 6688, strain 15; broth microdilution; read-out: MIC strain 15 (B. fragilis 6688)
C. perfringens DSM756 = assay: microbe, parasite or virus in culture; details: Clostridium perfringens, DSM756, read-out: MIC strain 16 (C. perfringens DSM756), strain 16; broth microdilution
E. coli J62 = assay: MIC determination, broth microdilution (CLSI); details: Escherichia coli, J62, strain 17; broth microdilution; read-out: MIC strain 17 (E. coli J62)
E. coli J62-TEM-3 = assay: MIC determination, broth microdilution (CLSI); details: Escherichia coli, J62TEM3, read-out: MIC strain 18 (E. coli J62-TEM-3), strain 18; broth microdilution
Bacteria = assay: MIC determination in combination with β-lactamase inhibitors (constant 4 μg/mL)
[3] = Staphylococcus aureus, 133, strain 11, read-out: strain 11 MIC
[4] = Staphylococcus aureus, 133, strain 14, broth microdilution, read-out: MIC strain 14 (S. aureus 133)

| SMILES | MIC (E. coli ATCC25922) [µg/mL] | MIC (K. pneumoniae 60) [µg/mL] | MIC (E. cloacae 34654) [µg/mL] | MIC (C. freundii K21/3034) [µg/mL] | MIC (M. morganii 126/3048) [µg/mL] | MIC (P. aeruginosa PAO1) [µg/mL] | MIC [1] [µg/mL] | MIC [2] [µg/mL] | MIC (A. baumannii ATCC15308) [µg/mL] | MIC (S. maltophilia ICB7569) [µg/mL] | MIC (S. aureus 133; [3]) [µg/mL] | MIC (S. aureus 133; [4]) [µg/mL] | MIC (H. influenzae ATCC 49247) [µg/mL] | MIC (S. pneumoniae 113) [µg/mL] | MIC (B. fragilis 6688) [µg/mL] | MIC (C. perfringens DSM756) [µg/mL] | MIC (E. coli J62) [µg/mL] | MIC (E. coli J62-TEM-3) [µg/mL] | MIC strain 19 (E. coli J62-TEM-3 + 4 μg/mL clavulanic acid) (Bacteria) [µg/mL] | MIC strain 20 (E. coli J62-TEM-3 + 4 μg/mL sulbactam) (Bacteria) [µg/mL] | also measured |
| --- | --- | --- | --- | --- | --- | --- | --- | --- | --- | --- | --- | --- | --- | --- | --- | --- | --- | --- | --- | --- | --- |
| CC1(C)[C@H](NC(=O)/C(=N\OCCOc2ccc(C(=N)NCc3ccccn3)cc2)c2csc(N)n2)C(=O)N1OS(=O)(=O)O [Example 76, (2Z)-2-(2-Amino-1,3-thiazol-4-yl)-N-[(3S)-2,2-dimethyl-4-oxo-1-(sulfooxy)azetidin-3-yl]-2-[(2-{4-[N-(pyridin-2-ylmethyl)carbamimidoyl]phenoxy}ethoxy)imino]ethanamide] | 0.5 (≈ 0.79 µM) | 0.5 (≈ 0.79 µM) | 1 (≈ 1.58 µM) | 0.5 (≈ 0.79 µM) | 1 (≈ 1.58 µM) | 16 (≈ 25.3 µM) | 16 (≈ 25.3 µM) | 32 (≈ 50.6 µM) | 4 (≈ 6.32 µM) | 16 (≈ 25.3 µM) | ≤ 0.063 | 4 (≈ 6.32 µM) | 0.25 (≈ 0.395 µM) | ≤ 0.063 | 4 (≈ 6.32 µM) | 2 (≈ 3.16 µM) | 0.5 (≈ 0.79 µM) | 8 (≈ 12.6 µM) | 0.5 | 0.5 | MIC strain 21 (E. coli J62-TEM-3 + 4 μg/mL tazobactam) (Bacteria): 0.5 µg/mL |
| CC1(C)[C@H](NC(=O)/C(=N\OCCOc2ccc(C(=N)NCCNC(=N)N)cc2)c2csc(N)n2)C(=O)N1OS(=O)(=O)O [Example 78, (2Z)-2-(2-Amino-1,3-thiazol-4-yl)-2-[(2-{4-[N-(2-carbamimidamidoethyl)carbamimidoyl]phenoxy}ethoxy)imino]-N-[(3S)-2,2-dimethyl-4-oxo-1-(sulfooxy)azetidin-3-yl]ethanamide] | 0.25 (≈ 0.399 µM) | 0.25 (≈ 0.399 µM) | 0.5 (≈ 0.798 µM) | 0.25 (≈ 0.399 µM) | 0.5 (≈ 0.798 µM) | 4 (≈ 6.38 µM) | 4 (≈ 6.38 µM) | 2 (≈ 3.19 µM) | 0.25 (≈ 0.399 µM) | 8 (≈ 12.8 µM) | ≤ 0.063 | 1 (≈ 1.6 µM) | ≤ 0.063 | ≤ 0.063 | 4 (≈ 6.38 µM) | 2 (≈ 3.19 µM) | 0.5 (≈ 0.798 µM) | 4 (≈ 6.38 µM) | 0.25 | 0.5 | MIC strain 21 (E. coli J62-TEM-3 + 4 μg/mL tazobactam) (Bacteria): 0.5 µg/mL |
| CC1(C)[C@H](NC(=O)/C(=N\OCCOc2ccc(C(=N)NCCN)nc2)c2csc(N)n2)C(=O)N1OS(=O)(=O)O [Example 82, (2Z)-2-{[2-({6-[N-(2-Aminoethyl)carbamimidoyl]pyridin-3-yl}oxy)ethoxy]imino}-2-(2-amino-1,3-thiazol-4-yl)-N-[(3S)-2,2-dimethyl-4-oxo-1-(sulfooxy)azetidin-3-yl]ethanamide] | 0.25 (≈ 0.427 µM) | 0.125 (≈ 0.213 µM) | 0.5 (≈ 0.854 µM) | 0.25 (≈ 0.427 µM) | 0.5 (≈ 0.854 µM) | 8 (≈ 13.7 µM) | 16 (≈ 27.3 µM) | 8 (≈ 13.7 µM) | 4 (≈ 6.83 µM) | 32 (≈ 54.6 µM) | ≤ 0.063 | 8 (≈ 13.7 µM) | ≤ 0.063 | ≤ 0.063 | 4 (≈ 6.83 µM) | 4 (≈ 6.83 µM) | 0.25 (≈ 0.427 µM) | 8 (≈ 13.7 µM) | 0.25 | 0.25 | MIC strain 21 (E. coli J62-TEM-3 + 4 μg/mL tazobactam) (Bacteria): 0.5 µg/mL |
| CC1(C)[C@H](NC(=O)/C(=N\OCCOc2ccc(C(=N)NCCCN)cc2)c2csc(N)n2)C(=O)N1OS(=O)(=O)O [Example 83, (2Z)-2-[(2-{4-[N-(3-Aminopropyl)carbamimidoyl]phenoxy}ethoxy)imino]-2-(2-amino-1,3-thiazol-4-yl)-N-[(3S)-2,2-dimethyl-4-oxo-1-(sulfooxy)azetidin-3-yl]ethanamide] | 0.125 (≈ 0.209 µM) | 0.25 (≈ 0.418 µM) | 0.25 (≈ 0.418 µM) | 0.125 (≈ 0.209 µM) | 0.5 (≈ 0.835 µM) | 2 (≈ 3.34 µM) | 4 (≈ 6.68 µM) | 4 (≈ 6.68 µM) | 0.25 (≈ 0.418 µM) | 16 (≈ 26.7 µM) | ≤ 0.063 | 2 (≈ 3.34 µM) | ≤ 0.063 | ≤ 0.063 | 4 (≈ 6.68 µM) | 2 (≈ 3.34 µM) | 0.25 (≈ 0.418 µM) | 4 (≈ 6.68 µM) | 0.125 | 0.25 | MIC strain 21 (E. coli J62-TEM-3 + 4 μg/mL tazobactam) (Bacteria): 0.25 µg/mL |
